Experimental data as given in publication PMC10765884, “MC180295 is a highly potent and selective CDK9 inhibitor with preclinical in vitro and in vivo efficacy in cancer” (Clinical Epigenetics, 2024).

Legend:
CDK9 = target: T1, CDK9 (Homo sapiens, UniProt P50750); set-up: method as in PMID 26083714; settings: cited from earlier work
T1 construct: purchased Reaction Biology Corp

[1] = Drug toxicity: body weights and complete blood counts in tumor-bearing mice; assay type: in vivo; settings: MV4-11 model, NSG mice, Fig. S4D
MV4-11-luc cells = assay: MV4-11-luc AML model in NSG mice; settings: MV4-11-luc in NSG mice, 0.5 mg/kg DAC i.p. daily alone
Description: E NSG mice were inoculated (i.p.) with 5 × 10^5 MV4-11-luc cells. Four days later, when substantial tumor burden was evident by bioluminescence imaging, MC180379, MC180380, or vehicle were administered (i.p.) q.o.d at 20 mg/kg. Luciferase expression was quantified and calculated. F Mouse survival in days. […] Significances were calculated using log-rank (Mantel-Cox) or Student’s t tests.
0.5 mg/kg DAC was administered (i.p.) daily. […] B Mouse survival in days. 20 mg/kg MC180295 was administered (i.p.) q.o.d. 0.5 mg/kg DAC was administered (i.p.) daily. C NSG mice were inoculated (i.p.) with 5 × 10^5 MV4-11-luc cells. Four days later, when substantial tumor burden was evident by bioluminescence imaging, MC180295 (20 mg/kg) or vehicle were administered (i.p.) every other day. 0.5 mg/kg DAC was administered (i.p.) daily. Luciferase expression was quantified and calculated. […] 0.5 mg/kg DAC was administered (i.p.) daily. Mouse survival shown in days. Significances were calculated using log-rank (Mantel-Cox) or Student's t tests. Data are shown as means ± SEMs. ***p < 0.001
Both female and male NOD.Cg-Prkdcscid Il2rgtm1Wjl/SzJ (NSG) mice were used for the experiments. Age- and gender-matched mice were randomly assigned to each group. 8–10-week-old NSG mice were tail vein-injected with 5 × 10^5 MV4-11-luc cells. […] Natural death or accumulation of ascites fluid were used as endpoints.

CT26.CL25 cells = assay: CT26.CL25 colon cancer model in B6 mice with/without CD8 depletion; assay type: in vivo; settings: CT26.CL25 s.c. in B6 mice, MC180295 20 mg/kg i.p. q.o.d., DAC 0.5 mg/kg i.p. daily
Description: Fig. 5 Survival and antitumor effects of MC180295, DAC, or their combination, with/without CD8 + T cells. A 20 mg/kg MC180295 was administered (i.p.) q.o.d. 0.5 mg/kg DAC was administered (i.p.) daily. Mouse survival in days. B Survival of B6 mice, after CD8 depletion, using an anti-CD8 antibody. 20 mg/kg MC180295 was administered (i.p.) q.o.d. 0.5 mg/kg DAC was administered (i.p.) daily. C Antitumor effects of MC180295 with and without CD8 depletion, using an anti-CD8 antibody. B6 mice were inoculated (s.c.) with 5 × 10^5 CT26.CL25 cells. Eight days later, when tumors were palpable, 20 mg/kg MC180295 was administered (i.p.) q.o.d. 0.5 mg/kg DAC was administered (i.p.) daily. Tumor sizes were measured using a caliper and calculated over vehicle. D Antitumor effects of DAC, with and without CD8 depletion, using an anti-CD8 antibody. B6 mice were inoculated (s.c.) with 5 × 10^5 CT26.CL25 cells. Eight days later, when tumors were palpable, 20 mg/kg MC180295 was administered (i.p.) q.o.d. 0.5 mg/kg DAC was administered (i.p.) daily. Tumor sizes were measured using a caliper and calculated over vehicle. E Antitumor effects of DAC + MC180295, with and without CD8 depletion, using an anti-CD8 antibody. B6 mice were inoculated (s.c.) with 5 × 10^5 CT26.CL25 cells. Eight days later, when tumors were palpable, 20 mg/kg MC180295 was administered (i.p.) q.o.d. 0.5 mg/kg DAC was administered (i.p.) daily. Tumor sizes were measured using a caliper and calculated over vehicle. Significances were calculated using log-rank (Mantel-Cox) or Student's T tests. Data shown as means ± SEMs
For the s.c. SW48 model, 2 × 10^6 cells were injected into the flanks of randomly assigned, gender-matched 8–10-week-old NSG mice. 20 mg/kg MC180379, MC180380, or MC180295 was injected (i.p.), every other day, when the tumors were palpable, 11 days after engraftment, until endpoints were met. Mice were sacrificed before tumor volumes exceeded 400 mm^2 (endpoint for this model). For the s.c. HT29 model, 2 × 10^6 cells were injected into the flanks of randomly assigned, gender-matched, 8–10-week-old NSG mice. […]

T1 sequence (P50750 whole entry): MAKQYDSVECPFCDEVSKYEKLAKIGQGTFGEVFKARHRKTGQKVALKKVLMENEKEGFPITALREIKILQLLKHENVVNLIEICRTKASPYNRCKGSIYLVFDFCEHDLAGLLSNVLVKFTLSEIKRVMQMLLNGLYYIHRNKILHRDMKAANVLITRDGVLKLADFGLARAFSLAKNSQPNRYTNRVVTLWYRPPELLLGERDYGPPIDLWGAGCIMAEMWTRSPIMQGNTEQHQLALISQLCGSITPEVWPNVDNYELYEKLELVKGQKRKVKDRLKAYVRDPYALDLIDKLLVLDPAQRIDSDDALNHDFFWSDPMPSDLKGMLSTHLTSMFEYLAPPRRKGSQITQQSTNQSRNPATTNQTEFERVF
T1 sequence (O60563 whole entry partner): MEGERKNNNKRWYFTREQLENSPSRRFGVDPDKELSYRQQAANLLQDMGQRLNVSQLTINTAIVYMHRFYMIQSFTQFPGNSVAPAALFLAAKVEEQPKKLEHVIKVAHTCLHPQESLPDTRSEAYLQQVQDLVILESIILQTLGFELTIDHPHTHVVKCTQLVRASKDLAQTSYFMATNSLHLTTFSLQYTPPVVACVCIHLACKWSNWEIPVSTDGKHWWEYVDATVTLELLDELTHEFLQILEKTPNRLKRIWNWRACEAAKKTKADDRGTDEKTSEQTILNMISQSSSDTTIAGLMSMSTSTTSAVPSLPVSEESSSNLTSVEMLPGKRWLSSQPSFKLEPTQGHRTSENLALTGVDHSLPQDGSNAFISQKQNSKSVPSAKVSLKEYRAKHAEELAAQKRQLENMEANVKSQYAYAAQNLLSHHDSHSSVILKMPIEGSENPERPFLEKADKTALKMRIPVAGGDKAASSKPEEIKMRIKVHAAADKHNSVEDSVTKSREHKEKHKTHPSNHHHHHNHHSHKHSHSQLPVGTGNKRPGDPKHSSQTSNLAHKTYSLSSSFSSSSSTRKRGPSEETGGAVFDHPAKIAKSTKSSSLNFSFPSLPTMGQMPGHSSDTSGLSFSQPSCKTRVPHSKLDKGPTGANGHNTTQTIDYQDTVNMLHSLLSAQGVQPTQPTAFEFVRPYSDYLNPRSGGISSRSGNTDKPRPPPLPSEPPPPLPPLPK

## NC1CCC(Nc2cc(-c3cccc(NCc4cccc(F)c4)n3)c(Cl)cn2)CC1 (centres unmarked) [iCDK9]
CDK9
  selectivity toward CDK9, compared to CDKs 1, 2, 4, 7, and 8: more than 600 fold

## Nc1ncn([C@H]2C[C@H](O)[C@@H](CO)O2)c(=O)n1 [DAC, decitabine, reference compound]
[1]
  body weights: did not affect NSG mouse body weights
MV4-11-luc cells
  survival: did not show consistent tumor suppression or a survival benefit
  tumor suppression (luciferase): did not show consistent tumor suppression
CT26.CL25 cells
  tumor size: significantly decrease tumor size, in a CD8 + T cell-dependent manner
